According to patent US20090018317A1, “Reactive dyestuffs with alkylthio group and beta-sulfatoethysulfone group” (Everlight USA, Inc., priority 2007, published 2009):

Assay: Alkali-resistant solubility test (filtration of dyestuff in alkali solution)
Assay type: physicochemical
Conditions: aqueous alkali solution (Na2SiO2 and NaOH), aqueous buffer; Na2SiO2 50°Be′ = 100 g/L, NaOH 38°Be′ = 30 ml/L; filtered through No. 1 filter paper
Experimental: First, the dyestuffs of the formula (A) and the formula (1), taken with proper amounts in accordance to a preliminary test, are respectively dissolved in water. The alkali solution including 100 g/L 50°Be′ Na2SiO2 and 30 ml/L 38°Be′ NaOH is added therein, respectively. The mixture samples respectively are filtered through the No. 1 filter paper of Toyo Rosh Kaisha, Ltd. in order to estimate how many solids are residual and then to determine the alkali-resistant solubility.

SMILES: CCN(c1cccc(S(=O)(=O)CCOS(=O)(=O)O)c1)c1nc(Nc2cc(S(=O)(=O)O)cc3c2[O][Cu-]24[O]C(=O)c5ccc(S(=O)(=O)O)cc5[N]2N=C(c2ccccc2)N=[N+]34)nc(SCC(=O)O)n1 (stereo not shown) [formula (1)]
- solubility: > 70 mg/mL
